Assay results taken from a melting point compilation (Tetko et al.; mined from patent text by program, amines drawn as free bases though some values may be those of a salt).
Residues, ends and D or L forms follow the SMILES beside them.

SMILES | melting point [°C]
c1cc(-c2n[nH]c3c2Cc2ccc(CN4CCSCC4)cc2-3)cs1 | 193 to 195
CN1CCN(c2n[nH]c(-c3ccc(Cl)cc3)c2-c2ccncc2)CC1 | 262 to 264
O=C1OC(Cl)(c2ccc(Cl)cc2)c2ccccc21 (stereo not given) | 133 to 135
CC(C)=NOCc1nc2c(N)nc(C)c(C)c2n1CCCCNS(C)(=O)=O | 157 to 159
CN1CCN(Cc2nnc3n2CC(=O)N(C)c2ccc(Cl)cc2-3)CC1 | 228 to 230
CC(CO)(Cc1c[nH]c2ccccc12)NC(=O)OC1C2CC3CC(C2)CC1C3 (stereo not given) | 72 to 74
CCn1c(C)c(C2(N(c3ccccc3)c3ccccc3)OCc3cccnc32)c2ccccc21 (stereo not given) | 132 to 136
O=c1cc(CCl)nc2ccn(-c3ccccc3)n12 | 194 to 196
Cc1nc(-c2cn(CCC3CC3)nn2)sc1C(=O)NCc1cccnc1 | 124 to 125
O=C(N[C@H]1CCN(C(=O)c2cc(C(F)(F)F)cc(C(F)(F)F)c2)[C@H](Cc2ccccc2)C1)c1ccnc2ccccc12 | 187
FC(F)(F)Oc1ccc(-n2cc(Br)cn2)cc1 | 63 to 65
COC(=O)CCc1cc2cc(C(F)(F)F)ccc2n1S(=O)(=O)c1cccc2nc(C)sc12 | 106 to 108
CCc1nc2c(N)nc3ccccc3c2n1CC#Cc1cccc([N+](=O)[O-])c1 | 224 to 243
CCCCOc1nc(N)nc2[nH]cnc12 | 165
CC(CCC(O)C(C)(C)O)C1CCC2C3CC=C4CC(O)CC(O)C4(C)C3CCC12C (stereo not given) | 198 to 200
Cn1c(=O)cc(-c2cccc(Cl)c2)c2cc(C(=O)c3cccc(I)c3)ccc21 | 235
Clc1ccc2c(c1)Cn1cccc1C(C1CCN(CCc3ccccc3)CC1)O2 (stereo not given) | 145 to 147
O=C(O)c1ccccc1NC(=S)Cc1ccccc1 | 166 to 167
CC1(C)OC(=S)N(c2cc(C#N)ccc2F)c2ccccc21 | 250 to 251
CCOC(=O)c1c(C)cc2nc(COC(=O)NCCO)n(-c3ccccc3S(=O)(=O)NC)c(=O)c2c1C | 122 to 125
CC(C)(C)C(=O)c1cnn2cccnc12 | 130 to 131
O=C(O)C[C@H]1C[C@@H](CCCCCCc2ccc(Cl)cc2Cl)OC1=O (relative stereo) | 57 to 59
CSc1sc(-c2nnco2)c2c1C(=O)CC(C)(C)C2 | 185 to 189
CN(C)CCCc1c[nH]c(-c2ccc(F)cc2)c1-c1ccncc1 | 177 to 179
COc1cccc2c1nc(C(F)F)n2-c1nc(C2CCCN(C(=O)OC(C)(C)C)C2)nc(N2CCOCC2)n1 (stereo not given) | 200 to 202

SMILES | melting point [°C]
CCOC(=O)CSC1=CCC2C3CCC4=CC(=O)C=CC4(C)C3(F)C(O)CC12C (stereo not given) | 144 to 145
CC(C)c1nc(CO)n(CC2=CCC(=O)N=C2)c1Sc1cc(Cl)cc(Cl)c1 | 220
O=C(O)COc1ccc(-c2noc3ccccc23)c(Cl)c1Cl | 166 to 167
Cc1cc(OCc2ccccc2)nc(S(C)(=O)=O)n1 | 57 to 60
NC(=O)CC(NC(=O)C(N)CO)C(=O)NC(Cc1ccccc1)C(N)=O (stereo not drawn) (H-Ser-Asn-Phe-NH2; configuration not given here) | 169 to 172
O=C(O)CN(CF)C(=O)c1ccccc1 | 233 to 235
CC(=O)N1CC(CCN2CC=CCC2c2ccc(C(F)(F)F)cc2)c2ccccc21 (stereo not given) | 85 to 88
C#CCOCC(C)(COCC#C)NC(=O)C(Oc1ccc2ncc(C#C)cc2c1)SC (stereo not given) | 95 to 100
CCOC(=O)CNc1nccc(-c2ccccn2)n1 | 85
CC(=O)C1CCC2C3CC=C4CC(F)CCC4(C)C3CCC12C (stereo not given) | 166 to 167
COCCC(=O)C1(N)C=CC(N(C)C(C)=O)=C(C#N)C1 (stereo not given) | 143 to 145
COCCOCOc1c(C(C)(C)C)cc(-c2nc(N)n[nH]2)cc1C(C)(C)C | 233 to 235
COc1ccc(Cl)c(NC(C)=S)c1 | 92 to 93
CC(C)[C@H](NC(=O)CCC(=O)Nc1ccccc1)C(N)=O | 218 to 220
CC(C)(C)C(O)C(Oc1ccc(Cl)cc1)n1ncnc1S (stereo not given) | 193 to 194
Cc1cc(F)ccc1C(=O)CCCN1CCC2(CC1)C(=O)NCN2c1ccccc1 | 180 to 182
[N-]=[N+]=Nc1ccc(Cl)cc1C(=NO)c1ccccc1 | 125 to 132
CC(C)(C)OC(=O)N1CCC(C(=O)C2CCCCC2=O)CC1 (stereo not given) | 71 to 72
CN(c1cccc2cc(C(=O)NCC(C)(CN3CCOCC3)SCc3ccccc3)[nH]c12)S(=O)(=O)c1cccs1 (stereo not given) | 150 to 152
CC(C)(C)C(NC(=O)c1ccc(Cl)cc1)NC(=NC#N)Nc1ccccc1F (stereo not given) | 208 to 209
Nc1cnc(Oc2cnc3ccccc3c2)c(Cl)c1 | 156 to 159
COc1ccccc1NC(=O)Nc1nc(NC(CC(=O)O)c2ccccc2)nc(Oc2ccc3ccccc3c2)n1 (stereo not given) | 149
CC(=O)Oc1ccc(C(=O)c2ccc(C)c(OC(C)=O)c2)cc1 | 60 to 64
Cc1cc(Br)cc(C)c1OCC1CCC[N+](C)([O-])C1 (stereo not given) | 210 to 211
COn1nnc2ccc(Cn3ccnc3)cc21 | 132

SMILES | melting point [°C]
c1ccc(-c2ncc(-c3csc(-c4ccccc4)n3)cn2)cc1 | 214 to 216
CC(C)NC(c1nccn1C)C1(c2ccc(Cl)c(Cl)c2)CCC1 (stereo not given) | 98 to 100
ClCCCOc1ccccc1Nc1nc(Cl)nc2[nH]cnc12 | 205
CN1C(=O)[C@H](NC(=O)CCc2ccc(C(F)(F)F)cc2)N=C(c2ccccc2)c2ccccc21 | 175 to 176
Cc1c(C(=O)NN2CCCCC2)nn(-c2ccc(Cl)cc2Cl)c1-c1ccc(OS(=O)(=O)CCC(F)(F)F)cc1 | 160
COc1ccc(S(=O)(=O)N2C(=O)C(O)(c3ccccc3OC)c3cc(Cl)c(C)cc32)c(OC)c1 (stereo not given) | 207 to 208
O=Cc1ccc(OCc2ccccc2)c(O)c1 | 118 to 120
CCCCCCCN(CCCCCSc1nc(-c2ccccc2)c(-c2ccccc2)[nH]1)C(=O)NC | 93 to 96
O=CNc1nc(-c2cccnc2)c(Cl)s1 | 229
COc1cc(Oc2cccc(C(F)(F)F)c2)nc(C(=O)NN=C2CCCC2)c1 | 146 to 148
O=C(O)CCCCCCn1c(-c2ccccc2)nc(-c2ccccc2)c1-c1ccccc1 | 149 to 150
CN(C)CCc1ccc(O)c2c1=NS(=O)(=O)N=2 | 202 to 205
O=c1[nH]c2ccc(C3CCNCC3)cc2[nH]1 | 214 to 215
CCC(C)Nc1nc(-c2cc(OC)c(OC)c(OC)c2)nc2sc(C#N)c(C)c12 (stereo not given) | 91 to 93
O=C1c2ccccc2OC2CCCON12 (stereo not given) | 139 to 141
Cc1oc(-c2cccc(C(F)(F)F)c2)nc1COc1cccc(CN(O)C(N)=O)c1 | 160 to 161
CCOC(=O)CC1=COc2ccc(O)cc2O1 | 160
CSc1ccc(C=CC(=O)c2ccc(N(C)C)cc2)cc1 | 150
N#Cc1c(C2CC2)nn(-c2c(Cl)cc(C(F)(F)F)cc2Cl)c1N | 197 to 199
Cn1nc(-c2cnc3[nH]cc(C(=O)NCC(C)(C)CO)c3n2)c2ccc(F)cc21 | 291 to 293
Cn1cc(-c2ccccc2)c(=S)c(-c2cccc(Br)c2)c1 | 185 to 188
COCCOc1ccc(CCCNS(=O)(=O)CCCc2ccccc2)c(Oc2ncc(C(F)(F)F)cc2Cl)c1 | 102
Nc1ccc(OCc2cscn2)cc1 | 114 to 115
CCCCCS(=O)(=O)NC(=O)/C=C/c1ccc(OCC(C)=O)cc1Oc1ncc(C(F)(F)F)cc1Cl | 187 to 188
CCc1cc(=O)c(C(=O)OC)c(C)[nH]1 | 176 to 180

SMILES | melting point [°C]
CCCCN(CCO)c1cccc(O)c1 | 45 to 47
Oc1cc(O)c2c(-c3cc(F)cc(F)c3)c(Br)oc2c1 | 121 to 122
CCOC(=O)C1=C(NC(=O)Nc2cc(C(=O)OC(C)C)c(Cl)cc2F)CCC1 | 146 to 149
CN(C)c1ccc2cc(C#N)oc2c1 | 70 to 71
NS(=O)(=O)c1ccc(-c2cnn(C3CC=CCC3)c(=O)c2-c2ccc(F)cc2)cc1 (stereo not given) | 206 to 208
C=CCc1cc2c(cc1O)C(C)(C)C(CCO)O2 (stereo not given) | 55 to 58
COc1cc2c(c(OC)c1/C=C/c1ccc(C(N)=O)cc1)C(C)(C)CCC2(C)C | 190 to 194
CC(C)(C)OC(=O)CN(C(=O)CN1C(=O)c2ccccc2C1=O)c1ccccc1Cc1ccccc1 | 190
CN1C(=O)C(c2ccc(OC(F)F)cc2)(c2cccc(OCCC=C(F)F)c2)N=C1N (stereo not given) | 127 to 128
CCOP(=O)(CC(=O)NC1CC1)OCC | 51 to 56
COC(=O)c1cc(Cl)sc1NC(C)=O | 110
Nc1ccc(OC(F)(F)F)cc1C=O | 42 to 44
CCOC(=O)c1cc(OC)c(OC)c(OC)c1-c1c(C(=O)OCC)cc(OC)c2c1OCO2 | 95 to 96.5
CC(=O)NCC1CC1c1c(-c2ccccc2)ccc2nn(C)cc12 (stereo not given) | 156 to 158
CCOC(=O)CCN(C(C)(C)C(=O)NO)S(=O)(=O)c1ccc(Oc2ccc(F)cc2)cc1 | 125
CC(=O)OCC1OC(OC(C)=O)C(N=[N+]=[N-])C(OC(C)=O)C1OC(C)=O (stereo not given) | 131 to 132
O=c1ccocc1OCc1ccccc1 | 82 to 85
CCCN(C(N)=S)C(COC1CCCCO1)c1ccccc1 (stereo not given) | 82
Cc1c(NC(=O)c2ccc(-c3ccc(F)cc3)cc2)ccc2cc(CN3CCC(CCCC(N)=O)CC3)cnc12 | 232 to 234
O=C1c2cc(F)ccc2CCc2cccnc21 | 78 to 81
CC(C)(C)OC(=O)[C@@H]1CC[C@H](NC(=O)CNC(=O)c2ccc(OCc3ccccc3)c(C(C)(C)C)c2)[C@H](C(=O)O)C1 | 126 to 132
O=[N+]([O-])c1oc2c(CCO)cccc2c1-c1ccccc1 | 133 to 136
CCCCCCCNC(=O)Nc1ccccc1C(=O)NC1CCN(C(=O)Oc2ccccc2)CC1 | 142 to 144
O=[N+]([O-])c1ccccc1-c1cc(F)c(F)c(F)c1 | 79
CC(C)(C)OC(=O)N1CC(CO)c2c1cc([N+](=O)[O-])c1ccccc21 (stereo not given) | 176
